Here are results for 30 molecules from patent US20260217701A1, “SELECTIVE BET INHIBITORS AND USES THEREOF” (Tay Therapeutics Limited, priority 2022, published 2026).

As a reminder, the IC50 is the concentration that gives 50% inhibition. High values mean lower potency, low ones higher potency.

Test [1] concerns the target T1, BRD4 BD1 (Homo sapiens, UniProt O60885).
T1 construct: HEK293 cells were transfected using NanoLuc-BRD4-BD1 or NanoLuc-BRD4-BD2 fusion vectors
Put plainly: NanoBRET bromodomain assay, NanoLuc-BRD4-BD1 in HEK293 cells. The test is classed as binding. On the procedure:
Exemplary compounds of the disclosure are active against BRD4 BD2 and selective over BRD4 BD1. BRD4 is a representative example of the BET family, as the binding sites of all BET family members are structurally similar. […] IC50s and fold selectivity's are determined as described below and are represented in Table 1.
(§1) Plates were then incubated at 37° C.+5% CO2 incubator for 2 hours.
(§2) Fold Selectivity Calculated (IC50 BD1/IC50 BD2).
Background: Bioluminescence resonance energy transfer reports proximity on the nanometre scale.

The target of test [2] is T2, BRD4 BD2 (Homo sapiens, UniProt O60885).
T2 construct: HEK293 cells were transfected using NanoLuc-BRD4-BD1 or NanoLuc-BRD4-BD2 fusion vectors
Nature of the test: NanoBRET bromodomain assay, NanoLuc-BRD4-BD2 in HEK293 cells. The format is binding. The settings on record: for Fold Selectivity BRD4 BD1/BD2: IC50 BD1/IC50 BD2, qualitative if an IC50 is at the upper limit. On the procedure: as §1, §2

`Cn1cc(-c2cc(=O)n(CCN3CCOCC3)cc2-c2ccccc2)c2cc(-c3cnn(C(F)(F)F)c3)[nH]c2c1=O` [Example 62, 6-methyl-4-(1-(2-morpholinoethyl)-2-oxo-5-phenyl-1,2-dihydropyridin-4-yl)-2-(1-(trifluoromethyl)-1H-pyrazol-4-yl)-1,6-dihydro-7H-pyrrolo[2,3-c]pyridin-7-one]: in test [1], the IC50 is more than 1000 nM. Further, in test [2], the IC50 is less than 10 nM and the “Fold Selectivity BRD4 BD1/BD2” value is reported as “xxxx (Fold >1000)”.
With `CN1CCC(n2cc(-c3ccccc3)c(-c3cn(C)c(=O)c4[nH]c(-c5cnn(C(F)(F)F)c5)cc34)cc2=O)CC1` [Example 63, 6-methyl-4-(1-(1-methylpiperidin-4-yl)-2-oxo-5-phenyl-1,2-dihydropyridin-4-yl)-2-(1-(trifluoromethyl)-1H-pyrazol-4-yl)-1,6-dihydro-7H-pyrrolo[2,3-c]pyridin-7-one], the figures for the IC50 in test [1] and in test [2] were 500 to 1000 nM and less than 10 nM, respectively. Besides, in test [2], the “Fold Selectivity BRD4 BD1/BD2” value is “xx (Fold >50 and ≤200)”.
In test [1], `Cn1cc(-c2cc(=O)n(C3CC(O)C3)cc2-c2ccccc2)c2cc(-c3cnn(C(F)(F)F)c3)[nH]c2c1=O` (stereo not drawn) [Example 64, 4-(1-(3-hydroxycyclobutyl)-2-oxo-5-phenyl-1,2-dihydropyridin-4-yl)-6-methyl-2-(1-(trifluoromethyl)-1H-pyrazol-4-yl)-1,6-dihydro-7H-pyrrolo[2,3-c]pyridin-7-one] yielded an IC50 of 500 to 1000 nM. In addition, in test [2], the IC50 fell in the range of 50 to 200 nM; the “Fold Selectivity BRD4 BD1/BD2” value was “x (Fold >2 and ≤50)”.
In turn, `CC(C)n1cc(-c2[nH]c3c(=O)n(C)cc(-c4cc(=O)n(C)cc4-c4ccccc4)c3c2F)cn1` [Example 65, 4-[3-fluoro-2-(1-isopropylpyrazol-4-yl)-6-methyl-7-oxo-1H-pyrrolo[2,3-c]pyridin-4-yl]-1-methyl-5-phenylpyridin-2-one] displayed an IC50 in test [1] of more than 1000 nM. In addition, in test [2], the IC50 lay within 10 to 50 nM; the “Fold Selectivity BRD4 BD1/BD2” value was “xxx (Fold >200 and ≤1000)”.
Take `Cn1cc(-c2cccnc2)c(-c2cn(C)c(=O)c3[nH]c(-c4cnn(C(F)(F)F)c4)cc23)cc1=O` [Example 66, 6-methyl-4-(1-methyl-6-oxo-1,6-dihydro-[3,3′-bipyridin]-4-yl)-2-(1-(trifluoromethyl)-1H-pyrazol-4-yl)-1,6-dihydro-7H-pyrrolo[2,3-c]pyridin-7-one]: the IC50 in test [1] is more than 1000 nM; in test [2], 200 to 1000 nM. For the same molecule, in test [2], the “Fold Selectivity BRD4 BD1/BD2” value is “x (Fold >2 and ≤50)”.
For the molecule `Cn1cc(-c2cccnc2)c(-c2cn(C)c(=O)c3[nH]c(-c4cnn(C(F)(F)F)c4)c(F)c23)cc1=O` [Example 67, 3-fluoro-6-methyl-4-(1-methyl-6-oxo-1,6-dihydro-[3,3′-bipyridin]-4-yl)-2-(1-(trifluoromethyl)-1H-pyrazol-4-yl)-1,6-dihydro-7H-pyrrolo[2,3-c]pyridin-7-one], the IC50 in test [1] was more than 1000 nM; in test [2], 10 to 50 nM. The “Fold Selectivity BRD4 BD1/BD2” value in test [2] is “xxx (Fold >200 and ≤1000)”.
Take `Cn1cc(-c2c(-c3ccccc3)cn(CCO)c(=O)c2C(F)(F)F)c2cc(-c3cnn(C(F)(F)F)c3)[nH]c2c1=O` [Example 68, 4-(1-(2-hydroxyethyl)-2-oxo-5-phenyl-3-(trifluoromethyl)-1,2-dihydropyridin-4-yl)-6-methyl-2-(1-(trifluoromethyl)-1H-pyrazol-4-yl)-1,6-dihydro-7H-pyrrolo[2,3-c]pyridin-7-one]: the values for the IC50 in test [1] and in test [2] were more than 1000 nM and 200 to 1000 nM, respectively. In test [2], the “Fold Selectivity BRD4 BD1/BD2” value is “x (Fold >2 and ≤50)”.
With `Cn1cc(-c2ccccc2)c(-c2cn(C)c(=O)c3[nH]c(-c4ccc(F)c(C(C)(C)O)c4)cc23)cc1=O` [Example 69], the IC50 in test [1] was 500 to 1000 nM. In test [2], the IC50 is less than 10 nM; the “Fold Selectivity BRD4 BD1/BD2” value was “xxx (Fold >200 and ≤1000)”.
`Cn1cc(-c2ccccc2C(F)F)c(-c2cn(C)c(=O)c3[nH]c(-c4ccc(F)cc4F)cc23)cc1=O` [Example 70]: the IC50 in test [1] was more than 1000 nM. In test [2], the IC50 was in the range of 200 to 1000 nM; the “Fold Selectivity BRD4 BD1/BD2” value was “x (Fold >2 and ≤50)”.
In the case of `CC(C)c1cc(-c2cc3c(-c4cc(=O)n(C)cc4-c4ccccc4)cn(C)c(=O)c3[nH]2)ccc1F` [Example 71], the concentration for half-maximal inhibition (IC50) in test [1] is more than 1000 nM. Besides, in test [2], the IC50 lay within 50 to 200 nM; the “Fold Selectivity BRD4 BD1/BD2” value was “xx (Fold >50 and ≤200)”.
Consider `CC(C)n1cc(-c2cc3c(-c4cc(=O)n(C)cc4-c4cccc(CS(C)(=O)=O)c4)cn(C)c(=O)c3[nH]2)cn1` [Example 72], for which the IC50 is more than 1000 nM in test [1] and 200 to 1000 nM in test [2]. In addition, the “Fold Selectivity BRD4 BD1/BD2” value in test [2] was “x (Fold >2 and ≤50)”.
In test [1], `Cn1cc(-c2cccc(CN3CCNCC3)c2)c(-c2cn(C)c(=O)c3[nH]c(-c4ccc(F)cc4F)cc23)cc1=O` [Example 73] yielded an IC50 of more than 1000 nM. In test [2], the IC50 was in the range of 200 to 1000 nM; the “Fold Selectivity BRD4 BD1/BD2” value was “x (Fold >2 and ≤50)”.
In turn, `COCCOc1cccc(-c2cn(C)c(=O)cc2-c2cn(C)c(=O)c3[nH]c(-c4cnn(C(C)C)c4)cc23)c1` [Example 74] came in with an IC50 in test [1] of more than 1000 nM. Further, in test [2], the IC50 is 10 to 50 nM; the “Fold Selectivity BRD4 BD1/BD2” value was “xx (Fold >50 and ≤200)”.
In test [1], `CC(C)n1cc(-c2cc3c(-c4cc(=O)n(C)cc4-c4cccc(OCCO)c4)cn(C)c(=O)c3[nH]2)cn1` [Example 75] showed an IC50 of more than 1000 nM. In addition, in test [2], the IC50 was 200 to 1000 nM; the “Fold Selectivity BRD4 BD1/BD2” value was “x (Fold >2 and ≤50)”.
`Cn1cc(-c2cccc(OCCO)c2)c(-c2cn(C)c(=O)c3[nH]c(-c4ccc(F)cc4F)cc23)cc1=O` [Example 76] displayed an IC50 in test [1] of more than 1000 nM. Besides, in test [2], the IC50 lay in the range of 10 to 50 nM; the “Fold Selectivity BRD4 BD1/BD2” value is “xxx (Fold >200 and ≤1000)”.
As for `Cn1cc(-c2cccc(CS(C)(=O)=O)c2)c(-c2cn(C)c(=O)c3[nH]c(-c4ccc(F)cc4F)cc23)cc1=O` [Example 77], in test [1], the IC50 is more than 1000 nM. Also, in test [2], the IC50 was in the range of 50 to 200 nM; the “Fold Selectivity BRD4 BD1/BD2” value was “xx (Fold >50 and ≤200)”.
Consider `CC(C)n1cc(-c2cc3c(-c4cc(=O)n(C)cc4-c4cccc(CN5CCOCC5)c4)cn(C)c(=O)c3[nH]2)cn1` [Example 78], for which the IC50 in test [1] is more than 1000 nM. In test [2], the IC50 was in the range of 10 to 50 nM; the “Fold Selectivity BRD4 BD1/BD2” value was “xxx (Fold >200 and ≤1000)”.
Regarding `Cn1cc(-c2ccccc2Cl)c(-c2cn(C)c(=O)c3[nH]c(-c4ccc(F)cc4F)cc23)cc1=O` [Example 79], the results for the IC50 in test [1] and in test [2] were more than 1000 nM and 10 to 50 nM, respectively. In addition, the “Fold Selectivity BRD4 BD1/BD2” value in test [2] is “xxx (Fold >200 and ≤1000)”.
Consider `Cn1cc(-c2ccccc2)c(-c2cn(C)c(=O)c3[nH]c(-c4cccnc4)cc23)cc1=O` [Example 80], for which the IC50 in test [1] was 50 to 500 nM; in test [2] it was less than 10 nM. Besides, in test [2], the “Fold Selectivity BRD4 BD1/BD2” value is “xx (Fold >50 and ≤200)”.
Molecule `Cn1ccc(-c2cc3c(-c4cc(=O)n(C)cc4-c4ccccc4)cn(C)c(=O)c3[nH]2)cc1=O` [Example 81] registered an IC50 in test [1] of more than 1000 nM. In test [2], the IC50 lay within 50 to 200 nM; the “Fold Selectivity BRD4 BD1/BD2” value is “xx (Fold >50 and ≤200)”.
With `Cn1cc(-c2ccccc2)c(-c2cn(C)c(=O)c3[nH]c(-c4c(F)cccc4F)cc23)cc1=O` [Example 82], the IC50 in test [1] was more than 1000 nM; in test [2] it was 50 to 200 nM. Moreover, in test [2], the “Fold Selectivity BRD4 BD1/BD2” value is “xx (Fold >50 and ≤200)”.
In the case of `Cn1cc(-c2ccccc2)c(-c2cn(C)c(=O)c3[nH]c(-c4cccc(S(C)(=O)=O)c4)cc23)cc1=O` [Example 83], in test [1], the IC50 was 500 to 1000 nM. Further, in test [2], the IC50 was less than 10 nM; the “Fold Selectivity BRD4 BD1/BD2” value was “xx (Fold >50 and ≤200)”.
In test [1], `Cn1cc(-c2ccccc2)c(-c2cn(C)c(=O)c3[nH]c(-c4cccc(C5COC5)c4)cc23)cc1=O` [Example 84] registered an IC50 of 50 to 500 nM. Moreover, in test [2], the IC50 is less than 10 nM; the “Fold Selectivity BRD4 BD1/BD2” value was “xx (Fold >50 and ≤200)”.
As for `COCc1cccc(-c2cc3c(-c4cc(=O)n(C)cc4-c4ccccc4)cn(C)c(=O)c3[nH]2)c1` [Example 85], the IC50 in test [1] was more than 1000 nM. In addition, in test [2], the IC50 is less than 10 nM and the “Fold Selectivity BRD4 BD1/BD2” value is reported as “xxxx (Fold >1000)”.
`Cc1cc(-c2cc3c(-c4cc(=O)n(C)cc4-c4ccc(S(C)(=O)=O)cc4)cn(C)c(=O)c3[nH]2)cc(C)n1` [Example 86]: the IC50 in test [1] was more than 1000 nM; in test [2], 200 to 1000 nM. Also, the “Fold Selectivity BRD4 BD1/BD2” value in test [2] was “x (Fold >2 and ≤50)”.
On to `Cc1cccc(C)c1Oc1cn(C2CC2)c(=O)cc1-c1cn(C)c(=O)c2[nH]c(-c3cccc(F)c3F)cc12` [Example 87], for which the IC50 in test [1] is more than 1000 nM. Further, in test [2], the IC50 was more than 1000 nM; the “Fold Selectivity BRD4 BD1/BD2” value is “— (Fold ≥0 and ≤2)”.
On to `Cc1cccc(C)c1Oc1cn(C)c(=O)cc1-c1cn(C)c(=O)c2[nH]c(-c3cc(F)c(F)cc3F)cc12` [Example 88], for which, in test [1], the IC50 was more than 1000 nM. In test [2], the IC50 lay in the range of 10 to 50 nM; the “Fold Selectivity BRD4 BD1/BD2” value was “xxx (Fold >200 and ≤1000)”.
`Cc1cc(-c2cc3c(-c4cc(=O)n(C)cc4-c4cccc(S(C)(=O)=O)c4)cn(C)c(=O)c3[nH]2)cc(C)n1` [Example 89]: the figures for the IC50 in test [1] and in test [2] were more than 1000 nM and 50 to 200 nM, respectively. Further, in test [2], the “Fold Selectivity BRD4 BD1/BD2” value is “xx (Fold >50 and ≤200)”.
Molecule `Cn1cc(-c2ccccc2)c(-c2cn(C)c(=O)c3[nH]c(-c4cccc(F)c4F)cc23)cc1=O` [Example 90] had an IC50 in test [1] of more than 1000 nM. Also, in test [2], the IC50 was in the range of 10 to 50 nM; the “Fold Selectivity BRD4 BD1/BD2” value is “xxx (Fold >200 and ≤1000)”.
`Cc1nn(C2COC2)cc1-c1cc2c(-c3cc(=O)n(C)cc3-c3ccccc3)cn(C)c(=O)c2[nH]1` [Example 91]: the IC50 was more than 1000 nM in test [1] and 10 to 50 nM in test [2]. The “Fold Selectivity BRD4 BD1/BD2” value in test [2] is “xx (Fold >50 and ≤200)”.
